In patent US20250214967A1, “FAK DEGRADERS, PHARMACEUTICAL COMPOSITIONS, AND THERAPEUTIC APPLICATIONS” (Berrybio (Shanghai) Limited, priority 2022, published 2025):

Experiments:
FAK [1] = target: T1, FAK (Homo sapiens (Human), UniProt Q05397); assay: FAK Degradation Assay (Western blot, FAK/GAPDH); format: cell-based; conditions: MDA-MB-231 cells, 24 h treatment, Western blot normalized to DMSO; for DC50: read-out: DC50 (half-maximal degradation concentration), FAK Degradation; for Dmax: read-out: Dmax (maximal degradation), FAK Degradation
Method: H2122 (4×10^5), MIA PaCa-2 (6×10s), or MDA-MB-231 cells (6×10^5) per well were seeded into a 6-well plate containing 2 mL of complete culture medium (RPMI-1640 for H2122 and MDA-MB-231, and DMEM/F12 for MIA PaCa-2, supplemented with 10% FBS and 1% penicillin/streptomycin). The cells were cultured overnight at 37° C. in the presence of 5% C02 before treated with a compound in a series of concentrations for 24 h. The cells were then washed with ice-cold Dulbecco's phosphate-buffered saline (DPBS). A radioimmuno-precipitation assay (RIPA) buffer was added to lyse the cells on ice for 20 min. The cells were then scrapped using cell scraper and collected in a 1.5 mL tube, which was centrifuged at 14,000 g and 4° C. for 15 min. The supernatant was collected and the total protein concentration of each sample was determined using a PIERCE™ BCA protein assay kit. The supernatant was diluted to the same protein concentration with the RIPA buffer after the BCA assay. Samples of the same protein amount were mixed with 4× a lithium dodecyl sulfate (LDS) sample buffer and boiled at 95° C. for 5 min. The denatured samples were used for electrophoresis.
For Western blot, the same volume containing ˜50 μg protein for each sample was loaded onto 4-12% Bis-Tris protein gel. The gel was run at 80 V for 0.5 h and at 120 V for 1 h. When the electrophoresis was completed, an IBLOT™ 2 gel transfer device was used to transfer FAK and GAPDH proteins at 20 V for 7 min. All the membranes were blocked in 5% nonfat dry milk in a TBST buffer at RT for 1 h and then incubated with primary antibodies (anti-FAK and anti-GAPDH) in a TBST buffer containing 5% BSA at 4° C. overnight. The membranes were washed with the TBST buffer and then incubated with secondary antibodies (goat anti-rabbit IgG H&L for FAK and goat anti-mouse IgG H&L for GAPDH) at room temperature for 1 h. Blots were visualized using an IMAGEQUANT™ LAS-4000. The chemiluminescent signals from ECL™ Western blotting reagents were captured. The band integrated intensity from each 16-bit blot image was used for quantitation. The FAK/GAPDH signal ratios of each sample were normalized using DMSO as a control and the normalized data for each compound were used to obtain its half-maximal degradation concentration (DC50) and maximal degradation (Dmax).
Target sequence in this assay (Q05397 whole entry): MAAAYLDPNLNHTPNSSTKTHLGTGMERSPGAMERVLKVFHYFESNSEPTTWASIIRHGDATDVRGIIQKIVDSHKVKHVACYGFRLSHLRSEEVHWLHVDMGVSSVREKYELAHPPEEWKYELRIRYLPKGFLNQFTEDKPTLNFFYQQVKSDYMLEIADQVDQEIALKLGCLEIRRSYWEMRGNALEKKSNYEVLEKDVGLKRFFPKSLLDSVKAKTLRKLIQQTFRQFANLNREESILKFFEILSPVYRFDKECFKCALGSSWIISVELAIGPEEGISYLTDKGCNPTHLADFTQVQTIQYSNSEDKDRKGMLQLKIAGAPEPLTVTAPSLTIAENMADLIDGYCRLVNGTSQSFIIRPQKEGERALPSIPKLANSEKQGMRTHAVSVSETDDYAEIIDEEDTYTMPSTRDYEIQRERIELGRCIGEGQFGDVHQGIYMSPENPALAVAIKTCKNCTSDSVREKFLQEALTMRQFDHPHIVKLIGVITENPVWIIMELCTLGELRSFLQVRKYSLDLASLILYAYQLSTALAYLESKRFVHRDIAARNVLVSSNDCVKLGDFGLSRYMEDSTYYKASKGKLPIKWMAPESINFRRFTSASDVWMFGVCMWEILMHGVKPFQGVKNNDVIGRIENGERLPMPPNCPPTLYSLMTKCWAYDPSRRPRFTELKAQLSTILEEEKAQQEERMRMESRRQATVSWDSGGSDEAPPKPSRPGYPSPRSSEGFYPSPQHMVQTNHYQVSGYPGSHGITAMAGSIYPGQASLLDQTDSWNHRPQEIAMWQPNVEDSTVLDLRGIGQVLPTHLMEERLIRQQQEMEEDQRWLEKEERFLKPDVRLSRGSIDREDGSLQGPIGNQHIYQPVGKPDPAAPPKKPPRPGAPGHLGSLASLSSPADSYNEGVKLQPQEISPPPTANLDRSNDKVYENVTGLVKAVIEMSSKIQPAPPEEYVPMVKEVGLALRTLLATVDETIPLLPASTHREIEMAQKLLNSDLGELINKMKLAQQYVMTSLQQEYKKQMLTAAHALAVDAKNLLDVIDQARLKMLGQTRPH

FAK [2] = target: T1, FAK; assay: FAK Kinase Assay (TR-FRET, LanthaScreen); format: biochemical; conditions: FAK 1 nM, ATP 6.8 μM, fluorescein-polyGT 0.2 μM, 30 min; read-out: IC50, FAK Inhibition
Method: The inhibitory activity of a compound against FAK was determined in a buffer containing 5 mM HEPES, pH 7.5, 0.01% Triton, 0.5 mM EGTA, and 0.01% BRIJ™-35 in a 384-well assay plate. The assay was carried out in the presence of the FAK at 1 nM and ATP at 6.8 μM using fluorescein-polyGT (0.2 μM) as an FAK substrate. Each assay mixture was incubated at room temperature for 30 min. A LANTHASCREEN® Tb-PY20 antibody was added to each well to stop the enzymatic reaction. The plate was incubated at room temperature for 60 min before reading on an ENVISION using TR-FRET module (excitation at 340 nm and emission at 520 nm and 495 nm).
Target sequence in this assay (Q05397 whole entry, species assumed): as the sequence (Q05397 whole entry) above

| SMILES | DC50 (FAK [1]) [nM] | Dmax (FAK [1]) [%] | IC50 (FAK [2]) [nM] |
| --- | --- | --- | --- |
| Cc1cc(OCCOCCOCCOc2ccc3c(c2)C(=O)N(C2CCC(=O)NC2=O)C3=O)ccc1Nc1ncc(C(F)(F)F)c(NCc2cccc(N(C)S(C)(=O)=O)c2)n1 (centres unmarked) [Compound A1, N-(3-(((2-((4-(2-(2-(2-((2-(2,6-dioxopiperidin-3-yl)-1,3-dioxoisoindolin-5-yl)oxy)ethoxy)ethoxy)ethoxy)-2-methylphenyl)amino)-5-(trifluoromethyl)pyrimidin-4-yl)-amino)methyl)phenyl)-N-methylmethanesulfonamide] | 7 | 89 | 4.5 |
| Cc1cc(OCCOCCOCCOc2ccc3c(c2)C(=O)N(C2CCC(=O)NC2=O)C3=O)ccc1Nc1ncc(C(F)(F)F)c(NCc2cccc(P(C)(C)=O)c2)n1 (centres unmarked) [Compound A3, 5-(2-(2-(2-(4-((4-((3-(Dimethylphosphoryl)benzyl)amino)-5-(trifluoromethyl)-pyrimidin-2-yl)amino)-3-methylphenoxy)ethoxy)ethoxy)ethoxy)-2-(2,6-dioxopiperidin-3-yl)-isoindoline-1,3-dione] | 1980 | 100 | 223 |
| CN(c1nccnc1CNc1nc(Nc2ccc(C(=O)N3CCC(N4CCN(c5ccc6c(c5)C(=O)N(C5CCC(=O)NC5=O)C6=O)CC4)CC3)cc2)ncc1C(F)(F)F)S(C)(=O)=O (centres unmarked) [Compound A5, N-(3-(((2-((4-(4-(4-(2-(2,6-dioxopiperidin-3-yl)-1,3-dioxoisoindolin-5-yl)-piperazin-1-yl)piperidine-1-carbonyl)phenyl)amino)-5-(trifluoromethyl)pyrimidin-4-yl)amino)-methyl)pyrazin-2-yl)-N-methylmethanesulfonamide] | 1.4 | 89 | 1.8 |
| CN(c1nccnc1CNc1nc(Nc2ccc(C(=O)NC3CCN(CC4CCN(c5ccc6c(c5)C(=O)N(C5CCC(=O)NC5=O)C6=O)CC4)CC3)cc2)ncc1C(F)(F)F)S(C)(=O)=O (centres unmarked) [Compound A4, N-(1-((1-(2-(2,6-dioxopiperidin-3-yl)-1,3-dioxoisoindolin-5-yl)piperidin-4-yl)methyl)piperidin-4-yl)-4-((4-(((3-(N-methylmethylsulfonamido)pyrazin-2-yl)methyl)amino)-5-(trifluoromethyl)pyrimidin-2-yl)amino)benzamide] | 0.5 | 92 | 0.4 |
| CNC(=O)c1ccccc1Nc1cc(Nc2cc(F)c(CNC3CCN(c4ccc5c(c4)C(=O)N(C4CCC(=O)NC4=O)C5=O)CC3)cc2OC)ncc1C(F)(F)F (centres unmarked) [Compound A54, 2-((2-((4-(((1-(2-(2,6-Dioxopiperidin-3-yl)-1,3-dioxoisoindolin-5-yl)piperidin-4-yl)amino)methyl)-5-fluoro-2-methoxyphenyl)amino)-5-(trifluoromethyl)pyridin-4-yl)amino)-N-methylbenzamide] | 0.98 | 96 |  |
| CN(c1nccnc1CNc1nc(Nc2cccc(C(=O)N3CCC(N4CCN(c5ccc6c(c5)C(=O)N(C5CCC(=O)NC5=O)C6=O)CC4)CC3)c2)ncc1C(F)(F)F)S(C)(=O)=O (centres unmarked) [Compound A11, N-(3-(((2-((3-(4-(4-(2-(2,6-Dioxopiperidin-3-yl)-1,3-dioxoisoindolin-5-yl)-piperazin-1-yl)piperidine-1-carbonyl)phenyl)amino)-5-(trifluoromethyl)pyrimidin-4-yl)amino)-methyl)pyrazin-2-yl)-N-methylmethanesulfonamide] | 0.83 | 94 |  |
| CN(c1ccccc1CNc1cc(Nc2ccc(CNC3CCN(c4ccc5c(c4)C(=O)N(C4CCC(=O)NC4=O)C5=O)CC3)cc2)ncc1C(F)(F)F)S(C)(=O)=O (centres unmarked) [Compound A14, N-(2-(((2-((4-(((1-(2-(2,6-dioxopiperidin-3-yl)-1,3-dioxoisoindolin-5-yl)piperidin-4-yl)amino)methyl)phenyl)amino)-5-(trifluoromethyl)pyridin-4-yl)amino)methyl)phenyl)-N-methylmethanesulfonamide] | 10 | 93 |  |
| CN(c1nccnc1CNc1nc(Nc2cccc(C(=O)NC3CCN(c4ccc5c(c4)C(=O)N(C4CCC(=O)NC4=O)C5=O)CC3)c2)ncc1C(F)(F)F)S(C)(=O)=O (centres unmarked) [Compound A12, N-(1-(2-(2,6-dioxopiperidin-3-yl)-1,3-dioxoisoindolin-5-yl)piperidin-4-yl)-3-((4-(((3-(N-methylmethylsulfonamido)pyrazin-2-yl)methyl)amino)-5-(trifluoromethyl)pyrimidin-2-yl)amino)benzamide] | 5.6 | 98 |  |
| CNC(=O)c1ccccc1Nc1cc(Nc2ccc(CNC3CCN(c4ccc5c(c4)C(=O)N(C4CCC(=O)NC4=O)C5=O)CC3)cc2)ncc1C(F)(F)F (centres unmarked) [Compound A22, 2-((2-((4-(((1-(2-(2,6-Dioxopiperidin-3-yl)-1,3-dioxoisoindolin-5-yl)piperidin-4-yl)amino)methyl)phenyl)amino)-5-(trifluoromethyl}pyridin-4-yl)amino)-N-methylbenzamide] | 3.5 | 93 |  |

Further lines, with some results ahead:

| DC50 (FAK [1]) [nM] | Dmax (FAK [1]) [%] | SMILES | IC50 (FAK [2]) [nM] |
| --- | --- | --- | --- |
| 2.5 | 99 | CN(c1nccnc1CNc1nc(Nc2ccc(CNC3CCN(CC4CCN(c5ccc6c(c5)C(=O)N(C5CCC(=O)NC5=O)C6=O)CC4)CC3)cc2)ncc1C(F)(F)F)S(C)(=O)=O (centres unmarked) [Compound A6, N-(3-(((2-((4-(((1-((1-(2-(2,6-Dioxopiperidin-3-yl)-1,3-dioxoisoindolin-5-yl)-piperidin-4-yl)methyl)piperidin-4-yl)amino)methyl)phenyl)amino)-5-(trifluoromethyl)pyrimidin-4-yl)amino)methyl)pyrazin-2-yl)-N-methylmethanesulfonamide] | 0.39 |
| 0.83 | 94 | CN(c1nccnc1CNc1nc(Nc2ccc(CN[C@@H]3CCN(c4ccc5c(c4)C(=O)N(C4CCC(=O)NC4=O)C5=O)C[C@@H]3F)cc2)ncc1C(F)(F)F)S(C)(=O)=O (stereo partly drawn) [Compound A36, N-(3-(((2-((4-((((3S,4R)-1-(2-(2,6-Dioxopiperidin-3-yl)-1,3-dioxoisoindolin-5-yl)-3-fluoropiperidin-4-yl)amino)methyl)phenyl)amino)-5-(trifluoromethyl)pyrimidin-4-yl)amino)-methyl)pyrazin-2-yl)-N-methylmethanesulfonamide] |  |
| 0.6 | 99 | CN(c1nccnc1CNc1nc(Nc2ccc(CNC3CCN(c4ccc5c(c4)C(=O)N(C4CCC(=O)NC4=O)C5=O)CC3)cc2)ncc1C(F)(F)F)S(C)(=O)=O (centres unmarked) [Compound A7, N-(3-(((2-((4-(((1-(2-(2,6-Dioxopiperidin-3-yl)-1,3-dioxoisoindolin-5-yl)-piperidin-4-yl)amino)methyl)phenyl)amino)-5-(trifluoromethyl)pyrimidin-4-yl)amino)methyl)-pyrazin-2-yl)-N-methylmethanesulfonamide] | 0.47 |
| 1.2 | 92 | CN(c1nccnc1CNc1nc(Nc2ccc(CNC3CCN(c4ccc(C5CCC(=O)NC5=O)cc4)CC3)cc2)ncc1C(F)(F)F)S(C)(=O)=O (centres unmarked) [Compound B1, N-(3-(((2-((4-(((1-(4-(2,6-Dioxopiperidin-3-yl)phenyl)piperidin-4-yl)amino)-methyl)phenyl)amino)-5-(trifluoromethyl)pyrimidin-4-yl)amino)methyl)pyrazin-2-yl)-N-methyl-methanesulfonamide] |  |
